Assay results from US7994311B2, “Fluorescent chemosensors for metals based on dipyrrins” (priority 2006, dated 2011).

Columns and labels:
[1] = Zn^2+ binding / complex formation (qualitative)
[2] = Fluorescence quantum yield of dipyrrins, free and with Zn^2+; conditions: even with Cd^2+; Table 1, FIG. 2
Source text: The conjugated (2) comprises a fluorophore with the […] moiety behaving as an ionphore. Benzaldehyde was used to form (2) because the properties shown by this type of sensing molecule with an benzene ring are representative of the general behavior of the family of compounds. In spite of the low fluorescence quantum yields of benzene, substituting benzene (ΦF=0.05±0.02) with a more intrinsically luminescent unit can make a great improvement in ΦF. An examples of another aromatic entity used instead of benzene is anthracene (ΦF0.27±0.03). When a […] attached to the benzene ring, the fluorescence quantum yield (ΦF) of (2) was very low and was determined to be 0.0011 due to the photo-induced electron transfer (PET), which is the intra-molecular quenching mechanism of an enamine group and an imine group in conjugate. When Zn^2+ bound with a […] moiety, PET was hindered and fluorescence emission intensity was recovered. […] Zn^2+, the fluorescence quantum yield was determined to be 0.07. […] (2), (3) and (4). The excitation wavelengths were 432, 475, 450 nm. The emission wavelengths were 496, 612, 497 and 599 nm for (2), (3) and (4). The ratio of fluorescence quantum yield [fluorescence quantum yield of metal ion/(2), (3) or (4) complex over fluorescence quantum yield of free ligand (10 μM)] was measured in acetonitrile.

[3] = Fluorescence response of (4) to Zn^2+ concentration; assay type: binding; conditions: fluorescence emission
Source text: We believe that the steric strain in conformations that would allow the orbital alignment needed for conjugation may be detrimental to high quantum yield. 1-pyrenyldipyrrin ((4), PYDPY1), is more fluorescent and sterically less demanding than (3). […] Indeed, as a Zn^2+ sensor, (4) is unsurpassed in its effective concentration range with Zn^2+, thus providing a rarely found degree of sensitivity.
FIG. 5 is a graph of fluorescence response and Zn^2+ concentration and (4).

C1=CC(=C(c2ccccc2)c2ccc[nH]2)N=C1 [Compound (2), 5-phenyl-4,6-dipyrrin]
binding of Zn^2+ (in words) [1]: found to bind Zn^2+ | selectivity for Zn^2+ in comparison to other common metal ions [2]: Excellent selectivity

C1=CC(=C(c2ccc[nH]2)c2ccc3ccc4cccc5ccc2c3c45)N=C1 [(4), 1-pyrenyldipyrrin]
Kd [3]: 20 µM
